Results from article PMC3410622 (2012).

Target: glutamate carboxypeptidase II (GCPII) (Homo sapiens, UniProt Q04609)
Type: biochemical

glutamate carboxypeptidase II (GCPII), sequence (Q04609 whole entry): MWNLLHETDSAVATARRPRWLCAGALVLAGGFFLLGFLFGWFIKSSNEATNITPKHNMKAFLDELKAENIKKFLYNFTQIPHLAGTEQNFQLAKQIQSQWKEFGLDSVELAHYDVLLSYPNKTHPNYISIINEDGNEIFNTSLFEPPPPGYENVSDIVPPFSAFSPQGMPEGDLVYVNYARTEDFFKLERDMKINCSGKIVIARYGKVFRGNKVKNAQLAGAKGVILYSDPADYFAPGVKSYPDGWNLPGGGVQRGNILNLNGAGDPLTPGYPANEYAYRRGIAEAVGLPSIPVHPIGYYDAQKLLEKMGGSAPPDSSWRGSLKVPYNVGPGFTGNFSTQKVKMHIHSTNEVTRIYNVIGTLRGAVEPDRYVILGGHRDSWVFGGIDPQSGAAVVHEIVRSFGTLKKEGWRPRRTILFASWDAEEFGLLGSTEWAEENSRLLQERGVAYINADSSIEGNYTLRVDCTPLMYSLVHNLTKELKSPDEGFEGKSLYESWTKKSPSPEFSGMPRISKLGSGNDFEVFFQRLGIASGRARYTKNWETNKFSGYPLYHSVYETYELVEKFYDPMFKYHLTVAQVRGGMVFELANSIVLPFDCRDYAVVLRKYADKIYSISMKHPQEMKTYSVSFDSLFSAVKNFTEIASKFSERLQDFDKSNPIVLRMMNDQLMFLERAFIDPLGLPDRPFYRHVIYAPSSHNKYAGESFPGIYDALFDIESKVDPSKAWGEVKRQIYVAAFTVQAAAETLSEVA

Ki: 39.4 ± 2.9 nM
Structure (SMILES): CCC[C@H](NC(=O)N[C@@H](CCC(=O)O)C(=O)O)C(=O)O [ZJ44, N-[[[(1S)-1-Carboxy-3-methylpropyl]amino]carbonyl]-L-glutamic acid]
